Source: patent publication US10508118B2, “Pyrimidopyrrole compounds, method for preparing the same, pharmaceutical compositions comprising the same and uses thereof” (Xiamen University, priority 2015, dated 2019)
Read-outs that look alike come from different tables or passages of the source.

How the values were obtained:
Assay type in all cases: cell-based
EML4-ALK-BaF3 = target: T1, EML4-ALK-BaF3 (Homo sapiens, UniProt Q9UM73); test: Growth inhibition of EML4-ALK transformed BaF3 cells (MTS); conditions: for IC50: EML4-ALK-BaF3 cells, 48 hours, MTS
T1 construct: expressed in transfected cells; host or cells: Ba/F3 cells; the other entry of the earlier key: EML4 (Q9HC35, Echinoderm microtubule-associated protein-like 4)
Outline: (§1)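 Ba/F3 cells (2×10^4/well) in DMEM or RPMI1640 with 10% FBS exposed to 8 compound concentrations (top 10 μM, 1/3 serial dilution, 0.1% DMSO) for 48 h at 37 °C, 5% CO2. Viability by MTS/PES, 1-4 h, OD 490 nm; triplicates. IC50 fitted from inhibition rate.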

EML4-ALK (L1196M)-BaF3 = target: T2, EML4-ALK (L1196M)-BaF3 (Homo sapiens, UniProt Q9UM73, L1196M); test: Growth inhibition of EML4-ALK (L1196M) transformed BaF3 cells (MTS); conditions: 48 hours
T2 construct: expressed in transfected cells; host or cells: Ba/F3 cells; the other entry of the earlier key: EML4 (Q9HC35, Echinoderm microtubule-associated protein-like 4)
Outline: as §1

NPM-ALK-BaF3 = target: T3, NPM-ALK-BaF3 (Homo sapiens, UniProt Q9UM73); test: Growth inhibition of NPM-ALK transformed BaF3 cells (MTS); conditions: 48 hours
T3 construct: expressed in transfected cells; host or cells: Ba/F3 cells; the other entry of the earlier key: NPM1 (P06748, Nucleophosmin)
Outline: (§2)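 MTS absorbance at 490 nm, measured 1–4 h after reagent addition, reports growth after 48 h compound exposure (37 °C, 5% CO2) of 2×10^4 cells/well. Eight 1/3-step concentrations from a 10 μM top, 0.1% DMSO; triplicate inhibition relative to vehicle and blank gives IC50.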

wild type BaF3 = test: Growth inhibition of wild type BaF3 cells (broad-spectrum toxicity); conditions: Mus musculus, BaF3, 48 h, MTS
Outline: as §2

[1] = Table 12, read-out: L1196M (IC50 nM)
[2] = Table 11, read-out: EML4-ALK (L1196M) (IC50 nM)

Row | SMILES | IC50 (EML4-ALK-BaF3; Table 12) [nM] | targeting selectivity (EML4-ALK-BaF3; ratio of IC50 between wild-type BaF3 and ALK transformed BaF3 cells) | IC50 (EML4-ALK (L1196M)-BaF3; [1]) [nM] | IC50 (NPM-ALK-BaF3; Table 12) [nM] | IC50 (EML4-ALK-BaF3; Table 11) [nM] | IC50 (EML4-ALK (L1196M)-BaF3; [2]) [nM] | IC50 (NPM-ALK-BaF3; Table 11) [nM] | IC50 (wild type BaF3; Table 12) [nM] | IC50 (wild type BaF3; Table 11) [nM]
1 | CNC(=O)c1ccccc1Nc1nc(Nc2ccc(N3CCC(N4CCN(C)CC4)CC3)cc2OC)nc2cc[nH]c12 [IJ-1] |  |  |  |  | 4270 | 3940 | 4660 |  | 5010
2 | CNC(=O)c1ccccc1Nc1nc(Nc2ccc(N3CCC(N4CCCC4)CC3)cc2OC)nc2cc[nH]c12 [IJ-2] |  |  |  |  | ~8710 | 4110 | ~8360 |  | ~11700
3 | CNC(=O)c1ccccc1Nc1nc(Nc2ccc(S(N)(=O)=O)cc2)nc2cc[nH]c12 [IJ-3] |  |  |  |  | > 10000 | > 10000 | > 10000 |  | > 10000
4 | COC(=O)c1sccc1Nc1nc(Nc2ccc(N3CCN(C)CC3)cc2OC)nc2cc[nH]c12 [IK-1] |  |  |  |  | ~2580 | 1550 | 1780 |  | 1820
5 | COC(=O)c1sccc1Nc1nc(Nc2ccc(N3CCC(N4CCN(C)CC4)CC3)cc2OC)nc2cc[nH]c12 [IK-2] |  |  |  |  | 669 | 451 | ~823 |  | ~913
6 | COc1cc(N2CCN(C)CC2)ccc1Nc1nc(NCc2ccccc2SC)c2[nH]ccc2n1 [IL-1] |  |  |  |  | 1320 | 1620 | ~929 |  | ~2820
7 | COc1cc(N2CCC(N3CCN(C)CC3)CC2)ccc1Nc1nc(NCc2ccccc2SC)c2[nH]ccc2n1 [IL-2] |  |  |  |  | ~2570 | 2000 | ~7720 |  | ~7840
8 | CSc1ccccc1CNc1nc(Nc2ccc(N3CCC(O)CC3)cc2)nc2cc[nH]c12 [IL-3] |  |  |  |  | 3500 | 5020 | 5180 |  | 5180
9 | CSc1ccccc1CNc1nc(Nc2ccc(S(N)(=O)=O)cc2)nc2cc[nH]c12 [IL-4] |  |  |  |  | 9510 | > 10000 | > 10000 |  | > 10000
10 | COc1cc(N2CCN(C)CC2)ccc1Nc1nc(NCc2ccccc2SC(C)C)c2[nH]ccc2n1 [IM-1] |  |  |  |  | ~300 | 587 | 572 |  | ~867
11 | CC(C)Sc1ccccc1CNc1nc(Nc2ccc(N3CCC(O)CC3)cc2)nc2cc[nH]c12 [IM-2] |  |  |  |  | 1240 | 1310 | 1620 |  | 2900
12 | CC(C)Sc1ccccc1CNc1nc(Nc2ccc(S(N)(=O)=O)cc2)nc2cc[nH]c12 [IM-3] |  |  |  |  | 7530 | > 10000 | > 10000 |  | > 10000
13 | COc1cc(N2CCN(C)CC2)ccc1Nc1nc(NCc2ccccc2S(C)(=O)=O)c2[nH]ccc2n1 [IN-1] |  |  |  |  | > 10000 | > 10000 | > 10000 |  | > 10000
14 | COc1cc(N2CCC(N3CCN(C)CC3)CC2)ccc1Nc1nc(NCc2ccccc2S(C)(=O)=O)c2[nH]ccc2n1 [IN-2] |  |  |  |  | > 10000 | > 10000 | > 10000 |  | > 10000
15 | CS(=O)(=O)c1ccccc1CNc1nc(Nc2ccc(N3CCC(O)CC3)cc2)nc2cc[nH]c12 [IN-3] |  |  |  |  | > 10000 | > 10000 | > 10000 |  | > 10000
16 | CS(=O)(=O)c1ccccc1CNc1nc(Nc2ccc(S(N)(=O)=O)cc2)nc2cc[nH]c12 [IN-4] |  |  |  |  | > 10000 | > 10000 | > 10000 |  | > 10000

More lines, main results first:

Row | IC50 (EML4-ALK-BaF3; Table 12) [nM] | targeting selectivity (EML4-ALK-BaF3; ratio of IC50 between wild-type BaF3 and ALK transformed BaF3 cells) | IC50 (EML4-ALK (L1196M)-BaF3; [1]) [nM] | IC50 (NPM-ALK-BaF3; Table 12) [nM] | IC50 (EML4-ALK-BaF3; Table 11) [nM] | IC50 (EML4-ALK (L1196M)-BaF3; [2]) [nM] | IC50 (NPM-ALK-BaF3; Table 11) [nM] | SMILES | IC50 (wild type BaF3; Table 12) [nM] | IC50 (wild type BaF3; Table 11) [nM]
17 | 627 | good targeting selectivity | 1420 | 1820 |  |  |  | COc1cc(N2CCC(N3CCN(C)CC3)CC2)ccc1Nc1nc(NCc2ccccc2S(=O)(=O)C(C)C)c2c(ccn2C)n1 [IIL-2] | 2620 | 
18 | > 10000 |  | > 10000 | 7440 |  |  |  | CC(C)S(=O)(=O)c1ccccc1CNc1nc(Nc2ccc(N3CCC(O)CC3)cc2)nc2ccn(C)c12 [IIL-3] | > 10000 | 
19 | > 10000 |  | > 10000 | > 10000 |  |  |  | CC(C)S(=O)(=O)c1ccccc1CNc1nc(Nc2ccc(S(N)(=O)=O)cc2)nc2ccn(C)c12 [IIL-4] | > 10000 | 
20 | 1140 |  | 1530 | 848 |  |  |  | CC(C)S(=O)(=O)c1ccccc1CNc1nc(Nc2ccc(N3CCN(C)CC3)cc2)nc2ccn(C)c12 [IIL-5] | ~2760 | 
21 | ~5750 |  | 6470 | > 10000 |  |  |  | COC(=O)c1ccccc1Oc1nc(Nc2ccc(N3CCN(C)CC3)cc2OC)nc2ccn(C)c12 [IIN-1] | ~9960 | 
22 | ~2590 |  | 2220 | 2330 |  |  |  | COC(=O)c1ccccc1Oc1nc(Nc2ccc(N3CCC(N4CCN(C)CC4)CC3)cc2OC)nc2ccn(C)c12 [IIN-2] | 5630 | 
23 | > 10000 |  | > 10000 | > 10000 |  |  |  | COC(=O)c1ccccc1Oc1nc(Nc2ccc(N3CCC(O)CC3)cc2)nc2ccn(C)c12 [IIN-3] | > 10000 | 
24 | > 10000 |  | > 10000 | > 10000 |  |  |  | COC(=O)c1ccccc1Oc1nc(Nc2ccc(S(N)(=O)=O)cc2)nc2ccn(C)c12 [IIN-4] | > 10000 | 
25 |  |  |  |  | 1720 | 3400 | 4830 | COc1cc(N2CCN(C)CC2)ccc1Nc1nc(NCc2ccccc2S(=O)(=O)C(C)C)c2[nH]ccc2n1 [IO-1] |  | 4080
26 |  |  |  |  | > 10000 | > 10000 | > 10000 | CC(C)S(=O)(=O)c1ccccc1CNc1nc(Nc2ccc(N3CCC(O)CC3)cc2)nc2cc[nH]c12 [IO-3] |  | > 10000
27 |  |  |  |  | > 10000 | > 10000 | > 10000 | CC(C)S(=O)(=O)c1ccccc1CNc1nc(Nc2ccc(S(N)(=O)=O)cc2)nc2cc[nH]c12 [IO-4] |  | > 10000
28 |  |  |  |  | 4870 | 5200 | 5030 | CC(C)S(=O)(=O)c1ccccc1CNc1nc(Nc2ccc(N3CCN(C)CC3)cc2)nc2cc[nH]c12 [IO-5] |  | 1910
29 |  |  |  |  | > 10000 | > 10000 | > 10000 | CNc1nc(Nc2ccc(N3CCC(N4CCN(C)CC4)CC3)cc2OC)nc2cc[nH]c12 [IQ-2] |  | > 10000
30 |  |  |  |  | > 10000 | > 10000 | > 10000 | CNc1nc(Nc2ccc(N3CCC(O)CC3)cc2)nc2cc[nH]c12 [IQ-3] |  | > 10000
31 |  |  |  |  | > 10000 | > 10000 | > 10000 | CNc1nc(Nc2ccc(S(N)(=O)=O)cc2)nc2cc[nH]c12 [IQ-4] |  | > 10000
32 |  |  |  |  | > 10000 | > 10000 | > 10000 | CNc1nc(Nc2ccc(C(=O)N3CCOCC3)cc2OC)nc2cc[nH]c12 [IQ-5] |  | > 10000
33 |  |  |  |  | > 10000 | > 10000 | > 10000 | CNc1nc(Nc2ccc(C(=O)N3CCN(C)CC3)cc2OC)nc2cc[nH]c12 [IQ-6] |  | > 10000
34 |  |  |  |  | > 10000 | > 10000 | > 10000 | CCNc1nc(Nc2ccc(N3CCN(C)CC3)cc2OC)nc2cc[nH]c12 [IR-1] |  | > 10000
35 |  |  |  |  | > 10000 | > 10000 | > 10000 | CCNc1nc(Nc2ccc(N3CCC(N4CCN(C)CC4)CC3)cc2OC)nc2cc[nH]c12 [IR-2] |  | > 10000
36 |  |  |  |  | > 10000 | > 10000 | > 10000 | CCNc1nc(Nc2ccc(N3CCC(O)CC3)cc2)nc2cc[nH]c12 [IR-3] |  | > 10000
37 |  |  |  |  | ~2550 | 1700 | 1790 | COc1cc(N2CCN(C)CC2)ccc1Nc1nc(NC2CC2)c2[nH]ccc2n1 [IS-1] |  | 5330
38 |  |  |  |  | > 10000 | 5030 | > 10000 | COc1cc(N2CCC(N3CCN(C)CC3)CC2)ccc1Nc1nc(NC2CC2)c2[nH]ccc2n1 [IS-2] |  | > 10000
39 |  |  |  |  | 4480 | 9710 | > 10000 | OC1CCN(c2ccc(Nc3nc(NC4CC4)c4[nH]ccc4n3)cc2)CC1 [IS-3] |  | 11800
40 |  |  |  |  | > 10000 | > 10000 | > 10000 | NS(=O)(=O)c1ccc(Nc2nc(NC3CC3)c3[nH]ccc3n2)cc1 [IS-4] |  | > 10000
41 |  |  |  |  | > 10000 | > 10000 | > 10000 | COC(=O)c1ccccc1Sc1nc(Nc2ccc(N3CCN(C)CC3)cc2OC)nc2cc[nH]c12 [IU-1] |  | > 10000
42 |  |  |  |  | 4580 | 2670 | 4900 | COC(=O)c1ccccc1Sc1nc(Nc2ccc(N3CCC(N4CCN(C)CC4)CC3)cc2OC)nc2cc[nH]c12 [IU-2] |  | ~8340
43 |  |  |  |  | 4900 | 4180 | 8270 | COC(=O)c1ccccc1Sc1nc(Nc2ccc(N3CCC(O)CC3)cc2)nc2cc[nH]c12 [IU-3] |  | 6520
44 |  |  |  |  | 9110 | 5990 | > 10000 | COC(=O)c1ccccc1Sc1nc(Nc2ccc(S(N)(=O)=O)cc2)nc2cc[nH]c12 [IU-4] |  | > 10000
45 |  |  |  |  | ~2880 | ~2510 | ~2850 | COC(=O)c1ccccc1Sc1nc(Nc2ccc(N3CCC(N4CCCC4)CC3)cc2OC)nc2cc[nH]c12 [IU-5] |  | ~7720
